This is an account of results in patent US10287259B2, “Selenazolidine and thiazolidine compounds for treating cancer and other diseases” (The Penn State Research Foundation, priority 2016, dated 2019).

This experiment relates to Panc-1 cells. Kind of experiment: Western blot analysis of Panc-1 lysates. In kind it is cell-based. How it is done: Whole-cell lysates were made by subjecting AS-10 treated Panc-1 cells to RIPA lysis buffer (Thermo Scientific, USA) containing protease (Roche, USA) and phosphatase inhibitor cocktails (Sigma-Aldrich, USA) (Plano et al., 2016, J. Med. Chem. 1946-1959). Lysates were spun at 15,000 rpm for 10 minutes. Resulting supernatant was stored at −80° C. until use. NuPAGE gel 4-12% (Life Technologies, Carlsbad, Calif.) was used to resolve the lysates, followed by electro-transfer to PVDF membrane. After the transfer membrane was blocked with 5% non-fat milk and probed with different antibodies. Protein of interest were detected by using enhanced Chemiluminescent reagent (Life technologies, USA). Blots were stripped using Restore Western blot stripping buffer (Thermo Scientific, USA) to save time and samples.
Background: A western blot detects proteins with antibodies after separation by electrophoresis.

With `CC(=O)Oc1ccccc1C(=O)/N=C1\[Se]CCN1C(=O)c1ccccc1OC(C)=O` [AS-10, 2-((3-(2-acetoxybenzoyl)-1,3-selenazolidin-2-ylidene)carbamoyl)phenyl acetate], the “cleaved caspase 8 (active)” value is listed as “not detected”. The “cleavage of caspase 9” value (10 μM) is “profound cleavage”. Moreover, for the setting “10 μM, increasing time points”, the “acetylation of histones H3 and H4” value is recorded as “able to acetylate histones”. Moreover, the “cell cycle arrest proteins p21 and p27” value (10 μM, from 6 h for p21 and 12 h for p27) was “increase”. For the same compound, the PARP cleavage result (Panc-1, 48 h, low dose AS-10 2.5 μM, gemcitabine 50 μM) is recorded as “no effect on PARP cleavage”. Further, where the note is “cytosolic lysates, TNF-α stimulation, increasing dose”, the IκBα degradation entry is listed as “IκBα is not degraded”. Further, the “active caspase 3 (cleaved caspase 3) and cleaved PARP” value (increasing concentration, 24 h) is “increase”. For the same compound, under “time dependent”, the “expression of Bcl-xL and Mcl-1” value is “inhibited the expression”.
